From patent US6218417A, “Ace-inhibitor nitric salts” (priority 1997, dated 2001)
Structures can show the parent of a compound that is named as a salt.

How the values were obtained:
[1] = test system: angiotensin-I-induced hypertension; experiment: Antihypertensive activity: inhibition of angiotensin I-induced hypertension (Laubie et al.); type: in vivo, rats; conditions: angiotensin I 100 μg/Kg i.v.
Description: The antihypertensive activity of the nitrate salts of the compounds of the invention was determined in accordance with the method of Laubie et al., J. Cardiovasc. Pharmacol. 6, 1076, 1984. No 6 rats weighing about 200 to 250 g were used per experimental group. Four groups were formed, which were intraperitoneally treated respectively as shown below:
The doses are referred to the amount of Enalapril (cation) in the salt. The antihypertensive response was evaluated as per-cent inhibition of the hypertension induced by the administration of a dose of 100 μg/Kg i.v. of angiotensin I as described in the above article.

[2] = test system: platelet aggregation (collagen-induced); experiment: Platelet-antiaggregating activity, in-vivo collagen model (Pinon et al.); parameters: species or system rats; conditions: 10 mg/Kg/os per day (as Enalapril cation) for five days; collagen 2 mg/Kg i.v.; referred to control group
Description: The in-vivo model described by Pinon et al., J. Pharm. Methods 12, 79-84, 1984, was used.
Two groups of 6 rats each, weighing about 200 to 250 g, were treated with an oral. dose of 10 mg/Kg/die of Enalapril maleate or nitrate respectively (the dose is referred to the amount of Enalapril cation in the salt) for five days, while a third group acted as a control group. About 18 hours before the last treatment, the animals were fasted. One hour after this treatment the animals were anaesthetised with 10% ethyl urethane (1 g/Kg intraperitoneally) and the left jugular vein and the right carotid artery were cannulated. Collagen (type 6, Sigma) was then administered intravenously at a dose of 2 mg/Kg. Three minutes later two blood samples, A and B, were collected from the carotid artery of each animal.
1.6 ml of EDTA/formalin buffer (24 mM tetrasodium EDTA, 1.3 mM KH2 PO4, 13.4 mM Na2 HPO4) was added to the first sample (sample A) containing 0.4 ml of blood.
The second blood sample (sample B) had the same volume as the previous sample (0.4 ml of blood) but, instead of the buffer, 1.6 ml of a saline solution (physiological NaCl solution) was added. […]
A microscope platelet count was then performed. […] The results shown in Table III are expressed as a % of platelet aggregation and are referred to the % value obtained in the control group.

[3] = test system: bronchial spasm induced by substance P; experiment: Bronchial spasm induced by substance P (Subissi et al.; Konzett); type: in vivo, female Guinea pigs; conditions: for Tidal air change % in bronchial spasm induced by substance P: 30 minutes before substance P (200 μg/Kg)
Description: Activity was evaluated measuring the strengthening of bronchial spasm induced by substance P, determined in accordance with the method of Subissi et al., Br. J. Pharmacol. 100, 502-6, 1990. The model described by Subissi is predictive of bronchial side effects due to the administration of ACE inhibitors.
Four groups (6 animals/group) of female Guinea pigs weighing about 300 to 400 g were anaesthetised with ethyl urethane (200 mg/Kg) under artificial pressure at constant positive pressure. The compounds were administered intra-peritoneally 30 minutes before substance P. The salt doses administered were the same as in Example 4. The changes in tidal air were then measured in accordance wuth the method of Konzett, Arch. Exp. Pathol. Pharmacol. 195, 71, 1940, before and after the administration of substance P (200 μg/Kg), with or without the test salts, i.e. Enalapril maleate and nitrate.

[4] = 100 μg/Kg/i.p. (as Enalapril cation)
[5] = 300 μg/Kg/i.p. (as Enalapril cation)

CCOC(=O)[C@H](CCc1ccccc1)N[C@@H](C)C(=O)N1CCC[C@H]1C(=O)O [Enalapril nitrate, (S)-1-[N-[1-(ethoxycarbonyl)-3-phenylpropyl]-L-alanyl]-L-proline]
Inhibition % for angiotensin-I-induced hypertension [1, 4]: 35% | Inhibition % for angiotensin-I-induced hypertension [1, 5]: 67% | Antiaggregating activity % [2]: 58% | Tidal air change % in bronchial spasm induced by substance P ([3]; 100 μg/Kg/i.p.): -5% | Tidal air change % in bronchial spasm induced by substance P ([3]; 300 μg/Kg/i.p.): -7% | Respiratory profile ([3]; compared to Enalapril maleate, 100 and 300 μg/Kg i.p.): better respiratory profile than Enalapril maleate at both tested doses

CCOC(=O)[C@H](CCc1ccccc1)N[C@@H](C)C(=O)N1CCC[C@H]1C(=O)O [Enalapril maleate, reference compound]
Inhibition % for angiotensin-I-induced hypertension [1, 4]: 18% | Inhibition % for angiotensin-I-induced hypertension [1, 5]: 55% | Antiaggregating activity % [2]: 5% | Tidal air change % in bronchial spasm induced by substance P ([3]; 100 μg/Kg/i.p.): +16% | Tidal air change % in bronchial spasm induced by substance P ([3]; 300 μg/Kg/i.p.): +28%
